Assay results as given in PubChem BioAssay (NCI).
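Five compound concentrations were applied to cells in 96-well plates for 48 hours; endpoints were derived by simple linear interpolation of the resulting dose-response curve. At the TGI there is no net growth.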

Assays:
Test in all cases: NCI-60 cell line screen, 48 h
SNB-19 CNS = test system: SNB-19 CNS
NCI-H226 lung = test system: NCI-H226 lung
IGROV1 ovarian = test system: IGROV1 ovarian
T-47D breast = test system: T-47D breast
MALME-3M melanoma = test system: MALME-3M melanoma
SK-MEL-5 melanoma = test system: SK-MEL-5 melanoma
HCT-116 colon = test system: HCT-116 colon
UACC-62 melanoma = test system: UACC-62 melanoma
NCI-H460 lung = test system: NCI-H460 lung
OVCAR-8 ovarian = test system: OVCAR-8 ovarian
OVCAR-3 ovarian = test system: OVCAR-3 ovarian
TK-10 renal = test system: TK-10 renal
M14 melanoma = test system: M14 melanoma
NCI-H23 lung = test system: NCI-H23 lung
UACC-257 melanoma = test system: UACC-257 melanoma
MDA-MB-435 = test system: MDA-MB-435
MDA-N = test system: MDA-N
MCF7 breast = test system: MCF7 breast
NCI-H522 lung = test system: NCI-H522 lung
BT-549 breast = test system: BT-549 breast

SMILES | TGI (SNB-19 CNS) [µM] | TGI (NCI-H226 lung) [µM] | TGI (IGROV1 ovarian) [µM] | TGI (T-47D breast) [µM] | TGI (MALME-3M melanoma) [µM] | TGI (SK-MEL-5 melanoma) [µM] | TGI (HCT-116 colon) [µM] | TGI (UACC-62 melanoma) [µM] | TGI (NCI-H460 lung) [µM] | TGI (OVCAR-8 ovarian) [µM] | TGI (OVCAR-3 ovarian) [µM] | TGI (TK-10 renal) [µM] | TGI (M14 melanoma) [µM] | TGI (NCI-H23 lung) [µM] | TGI (UACC-257 melanoma) [µM] | TGI (MDA-MB-435) [µM] | TGI (MDA-N) [µM] | TGI (MCF7 breast) [µM] | TGI (NCI-H522 lung) [µM] | TGI (BT-549 breast) [µM]
N#Cc1[nH]c(=O)n(-c2ccccc2)c1N | > 10 | > 10 | > 10 | > 10 | > 10 | > 10 | > 10 | > 10 | > 10 | > 10 | > 10 | > 10 | > 10 | > 10 | > 10 | > 10 | > 10 | – | – | –
CC(=O)ONC(C(=O)C(C)(C)C)C(=O)C(C)(C)C | > 100 | > 100 | > 100 | > 100 | > 100 | > 100 | > 100 | – | > 100 | > 100 | > 100 | > 100 | > 100 | > 100 | > 100 | – | > 100 | > 100 | > 100 | –
O=Cc1ccccc1COC(=O)c1cc(C(=O)OCc2ccccc2C=O)c(C(=O)OCc2ccccc2C=O)cc1C(=O)OCc1ccccc1C=O | > 100 | > 100 | > 100 | – | > 100 | > 100 | > 100 | > 100 | > 100 | > 100 | > 100 | > 100 | > 100 | > 100 | > 100 | – | – | – | > 100 | –
CCOC1=NC(O)c2cccn2-c2sccc21 (stereo not drawn) | > 100 | – | – | > 100 | > 100 | > 100 | > 100 | > 100 | > 100 | > 100 | > 100 | > 100 | > 100 | > 100 | – | > 100 | > 100 | > 100 | > 100 | –
O=[N+]([O-])c1ccc(S(=O)(=O)n2c3ccc(Br)cc3c3nc4ccccc4nc32)cc1 | > 100 | > 100 | > 100 | > 100 | – | > 100 | > 100 | > 100 | > 100 | > 100 | > 100 | > 100 | > 100 | > 100 | > 100 | > 100 | > 100 | – | > 100 | –
CC1S/C(=N\N=C2/C(=O)Nc3ccc(Br)cc32)N(C2CCCCC2)C1=O (stereo not drawn) | 14.8 | 18 | – | 19.6 | 31.1 | > 100 | 6.61 | 6.75 | 18.8 | – | 10 | 6.58 | 22.7 | 15.6 | > 100 | 23.1 | > 100 | 35 | – | –
COc1cc(OC)c2c(C)cc(=O)oc2c1 | > 100 | > 100 | > 100 | – | > 100 | > 100 | > 100 | > 100 | – | > 100 | > 100 | > 100 | > 100 | > 100 | > 100 | > 100 | > 100 | > 100 | – | –
CN(C)CC1CCCC(CN(C)C)C1OC(=O)c1ccccc1 (stereo not drawn) | – | > 100 | > 100 | – | > 100 | > 100 | > 100 | > 100 | > 100 | > 100 | > 100 | > 100 | > 100 | > 100 | > 100 | – | – | – | > 100 | –
CCCCC1Cc2ccccc2-c2nc3ccccc3n21 (stereo not drawn) | – | 39.5 | 32.9 | 29.4 | – | 31.1 | 26.6 | – | 28.8 | 34.9 | 30.3 | 31.5 | 36.3 | 32 | 32.2 | 37.1 | 29.2 | 32.9 | 26.5 | –
Cc1cc(N(CCC#N)CCC#N)ccc1/C=C(\NC(=O)/C=C/c1ccccc1)C(N)=O | > 100 | > 100 | > 100 | – | > 100 | > 100 | > 100 | > 100 | > 100 | > 100 | > 100 | > 100 | > 100 | > 100 | > 100 | – | – | – | > 100 | –
COC(=O)Nc1nc2ccc(S(=O)(=O)SC)cc2[nH]1 | > 100 | > 100 | 15.3 | 30.4 | 25.6 | > 100 | 24.5 | 22.5 | > 100 | 30.6 | > 100 | 22.1 | 18.4 | – | 45.5 | 12.2 | – | 27 | > 100 | 22.7
CN=C(SC)N(C)c1nc(=[N+](C)C)ss1 | > 100 | > 100 | > 100 | – | – | > 100 | > 100 | > 100 | – | > 100 | – | > 100 | > 100 | > 100 | > 100 | – | – | – | > 100 | –
C[Si](C)(C)OC1CC(=O)OC1n1cc(F)c(=O)[nH]c1=O (stereo not drawn) | > 100 | > 100 | > 100 | – | > 100 | > 100 | > 69 | > 100 | > 100 | > 100 | > 100 | > 100 | > 100 | > 100 | > 100 | – | – | – | > 100 | –
O=C1NC2O[C@H](CNC(=O)c3cc(Br)c[nH]3)CC2(O)N1 (mixture of isomers) | > 100 | > 100 | > 100 | > 100 | > 100 | > 100 | > 100 | > 100 | > 100 | > 100 | > 100 | > 100 | > 100 | > 100 | > 100 | > 100 | – | > 100 | > 100 | > 100
